{"source": "patent US20110152223A1", "about": "“THERAPEUTIC AGENT FOR ANCA-RELATED VASCULITIS” (priority 2008, published 2011)", "format_in_all_cases": "in vivo", "key": {"SCG/Kj mice": {"test_system": "SCG/Kj mice", "test": "Action of EPA on the survival rate of SCG/Kj mice as an ANCA model", "conditions": "SCG/Kj mice fed 5% diet in a free-feeding state from seven weeks old", "description": "SCG/Kj mice (seven weeks old) as a spontaneous ANCA vasculitis/nephritis model (Nippon Kayaku Co., Ltd.) were divided into three groups comprising 6 or 7 animals each, and fed on (1) fish meal-free feed F1 (Funakoshi Co., Ltd.) (control group), (2) 5% corn oil diet (manufactured by Sigma Corporation) (corn oil group), or (3) 5% EPA-E diet (diet F1 with 5% EPA-E added thereto) (EPA group) in a free-feeding state so as to observe the survival rate."}, "MPO-ANCA": {"test_system": "MPO-ANCA", "test": "MPO-ANCA in the serum of SCG/Kj mice by ELISA (ANCA production)", "conditions": "5% EPA-E diet from seven weeks old until completed 11th week of age, absorbance at 405 nm", "protocol": "SCG/Kj mice (seven weeks old) were divided into three groups comprising 6 or 7 animals each, and fed under the same conditions as Example 1 until they completed their 11th week of age. Groups of B6 mice (two animals) and of SCG/Kj mice (15 weeks old; three animals) were further provided, and the five groups were subjected to the absorbance measurement for MPO-ANCA in the serum by an ELISA technique.\nThe MPO-ANCA titer was measured by following a method having already been reported (Ishida-Okawara, A., Ito-Ihara, T., Muso, E. et al., Neutrophil contribution to the crescentic glomerulonephritis in SCG/Kj mice, Nephrol. Dial. Transplant. 2004; 19: 1708-1715). To put it briefly: Recombinant mouse MPO was coated onto an ELISA plate (Toyoshima Co., Tokyo, Japan) at 4° C. overnight. The plate was blocked with 1% bovine serum albumin (BSA) (Sigma), then incubated at room temperature for 1.5 hours in the presence of mouse serum (50-fold dilution).\nBound MPO-ANCA was detected after an incubation for two hours in the presence of an alkaline phosphatase-labeled anti-mouse IgG antibody (Cappel). Subsequently, the secondary antibody as bound was quantified by measuring the absorbance at 405 nm after an incubation in the presence of 1 mg/ml of p-nitrophenyl phosphate (Sigma)."}, "Foxp3": {"test_system": "Foxp3", "test": "mRNA expression level of Foxp3 in the kidneys of SCG/Kj mice (quantitative real-time PCR)", "conditions": "5% EPA-E diet from seven weeks old until completed 11th week of age", "protocol": "(§1) SCG/Kj mice (seven weeks old) were divided into three groups comprising 6 or 7 animals each, and fed under the same conditions as Example 1 until they completed their 11th week of age. The mRNA expression levels of PD-1, PD-L1, PD-L2, Foxp3, and CTLA4 in the kidneys, lungs and spleens of the mice were evaluated.\n(§2) A frozen kidney was homogenized in a TRIzol® reagent (Invitrogen, Carlsbad, Calif.). Total RNA was prepared from the homogenate, and purified using PureLink Micro-to-Midi Total RNA Purification System (Invitrogen). SuperScript™ III first-strand synthesis system (Invitrogen) was used to prepare cDNA from the purified total RNA, and quantitative real-time PCR was conducted with ABI Prism® 7000 (Applied Biosystems, Foster City, Calif.). For primers and probes for PCR, TaqMan® gene expression assays (Applied Biosystems) were used."}, "PD-1": {"test_system": "PD-1", "test": "mRNA expression level of PD-1 in the kidneys of SCG/Kj mice (quantitative real-time PCR)", "conditions": "5% EPA-E diet from seven weeks old until completed 11th week of age", "protocol": "as §1, §2"}, "PD-L1": {"test_system": "PD-L1", "test": "mRNA expression level of PD-L1 in the kidneys of SCG/Kj mice (quantitative real-time PCR)", "conditions": "5% EPA-E diet from seven weeks old until completed 11th week of age", "protocol": "as §1, §2"}, "PD-L2": {"test_system": "PD-L2", "test": "mRNA expression level of PD-L2 in the kidneys of SCG/Kj mice (quantitative real-time PCR)", "conditions": "5% EPA-E diet from seven weeks old until completed 11th week of age", "protocol": "as §1, §2"}, "CTLA4": {"test_system": "CTLA4", "test": "mRNA expression level of CTLA4 in the kidneys of SCG/Kj mice (quantitative real-time PCR)", "conditions": "5% EPA-E diet from seven weeks old until completed 11th week of age", "protocol": "as §1, §2"}}}
{"smiles": "CC/C=C\\C/C=C\\C/C=C\\C/C=C\\C/C=C\\CCCC(=O)OCC", "note": "[EPA-E, ethyl icosapentate ester]", "values": [{"measurement": "age at which the survival rate began to decrease", "setting": "SCG/Kj mice", "result": "about 15 weeks old"}, {"measurement": "survival-prolonging effect", "setting": "SCG/Kj mice", "result": "has a survival-prolonging effect"}, {"measurement": "ANCA levels relative to normal mice (B6)", "setting": "MPO-ANCA", "result": "comparable to those of the normal mice (B6)"}, {"measurement": "ANCA production as compared with the control group and the corn oil group", "setting": "MPO-ANCA", "result": "evidently suppressed"}, {"measurement": "Foxp3 mRNA expression level in the kidney as compared with the control group", "setting": "Foxp3", "result": "significantly increased"}, {"measurement": "PD-1 mRNA expression level in the kidney as compared with the control group", "setting": "PD-1", "result": "likely to be increased"}, {"measurement": "PD-L1 mRNA expression level in the kidney as compared with the control group", "setting": "PD-L1", "result": "likely to be increased"}, {"measurement": "PD-L2 mRNA expression level in the kidney as compared with the control group", "setting": "PD-L2", "result": "likely to be increased"}, {"measurement": "CTLA4 mRNA expression level in the kidney as compared with the control group", "setting": "CTLA4", "result": "likely to be increased"}]}
